According to patent US20120131849A1, “METHOD FOR STORAGE OF SEEDS” (priority 2009, published 2012):

Tested on: seeds of Eustoma grandiflorum “F1 Mellow Violet”
Experiment: Germination rate test after storage of seeds in oily substance
Type: in vivo
Description: After a predetermined amount of culture soil (Metro-Mix350, manufactured by Scotts) was filled into a cell tray, 100 seeds were sown, and water sprinkling was performed as necessary. With regard to the light conditions, suitable conditions for each seed type were adopted. After sowing, the number of germinated seeds was measured over time, and the number of germinated seeds with respect to the 100 seeds was calculated as a germination rate (%).
The germination rate (%) obtained 10 days after sowing was particularly evaluated as germination vigor (%). The germination vigor is a measure of germination speed or whether germination is uniform, and higher germination vigor values mean faster and more uniform germination. In the case of seeds of a plant that takes long time to germinate, the number of days after sowing was changed as appropriate to obtain the germination vigor.
The germination rate (%) obtained 14 days after sowing was particularly evaluated as the final germination rate (%). In the case of seeds of a plant that takes long time to germinate, the number of days after sowing was changed as appropriate to obtain the final germination rate. […]
First, 0.01 g of seeds of Eustoma grandiflorum “F1 Mellow Violet” was placed in each of 1.5 mL test tubes. Subsequently, 1.5 mL of a medium-chain triglyceride was gently poured into each test tube, which was then capped. The seeds were completely immersed in the medium-chain triglyceride. The test tubes were stored at 4° C. or 25° C. in darkness for 6 months, 18 months, or 36 months, and afterward, the seeds were removed from the test tubes, and a germination rate test was performed. A germination rate test for Eustoma grandiflorum “F1 Mellow Violet” seeds immediately after purchasing was also performed at the same time.

SMILES: CCCC(=O)O [Example 10, butanoic acid]
- Germination rate (%) 10 days (germination vigor) (Stored at 4° C., 6 months): 94%
- Germination rate (%) 14 days (final germination rate) (Stored at 4° C., 6 months): 94%
- Germination rate (%) 10 days (germination vigor) (Stored at 4° C., 18 months): 95%
- Germination rate (%) 14 days (final germination rate) (Stored at 4° C., 18 months): 95%
- Germination rate (%) 10 days (germination vigor) (Stored at 4° C., 36 months): 95%
- Germination rate (%) 14 days (final germination rate) (Stored at 4° C., 36 months): 96%
- Germination rate (%) 10 days (germination vigor) (Stored at 25° C., 6 months): 95%
- Germination rate (%) 14 days (final germination rate) (Stored at 25° C., 6 months): 96%
- Germination rate (%) 10 days (germination vigor) (Stored at 25° C., 18 months): 93%
- Germination rate (%) 14 days (final germination rate) (Stored at 25° C., 18 months): 96%
- Germination rate (%) 10 days (germination vigor) (Stored at 25° C., 36 months): 92%
- Germination rate (%) 14 days (final germination rate) (Stored at 25° C., 36 months): 95%

SMILES: CCCCCCCC(=O)O [Example 11, octanoic acid]
- Germination rate (%) 10 days (germination vigor) (Stored at 4° C., 6 months): 93%
- Germination rate (%) 14 days (final germination rate) (Stored at 4° C., 6 months): 93%
- Germination rate (%) 10 days (germination vigor) (Stored at 4° C., 18 months): 96%
- Germination rate (%) 14 days (final germination rate) (Stored at 4° C., 18 months): 96%
- Germination rate (%) 10 days (germination vigor) (Stored at 4° C., 36 months): 95%
- Germination rate (%) 14 days (final germination rate) (Stored at 4° C., 36 months): 95%
- Germination rate (%) 10 days (germination vigor) (Stored at 25° C., 6 months): 93%
- Germination rate (%) 14 days (final germination rate) (Stored at 25° C., 6 months): 93%
- Germination rate (%) 10 days (germination vigor) (Stored at 25° C., 18 months): 91%
- Germination rate (%) 14 days (final germination rate) (Stored at 25° C., 18 months): 93%
- Germination rate (%) 10 days (germination vigor) (Stored at 25° C., 36 months): 90%
- Germination rate (%) 14 days (final germination rate) (Stored at 25° C., 36 months): 93%

SMILES: CCCCCCCCCCCO [Example 17, undecyl alcohol]
- Germination rate (%) 10 days (germination vigor) (Stored at 4° C., 6 months): 94%
- Germination rate (%) 14 days (final germination rate) (Stored at 4° C., 6 months): 96%
- Germination rate (%) 10 days (germination vigor) (Stored at 4° C., 18 months): 94%
- Germination rate (%) 14 days (final germination rate) (Stored at 4° C., 18 months): 94%
- Germination rate (%) 10 days (germination vigor) (Stored at 4° C., 36 months): 90%
- Germination rate (%) 14 days (final germination rate) (Stored at 4° C., 36 months): 92%
- Germination rate (%) 10 days (germination vigor) (Stored at 25° C., 6 months): 94%
- Germination rate (%) 14 days (final germination rate) (Stored at 25° C., 6 months): 95%
- Germination rate (%) 10 days (germination vigor) (Stored at 25° C., 18 months): 95%
- Germination rate (%) 14 days (final germination rate) (Stored at 25° C., 18 months): 94%
- Germination rate (%) 10 days (germination vigor) (Stored at 25° C., 36 months): 89%
- Germination rate (%) 14 days (final germination rate) (Stored at 25° C., 36 months): 92%
